# Data: patent publication US12116388B2, “Amylin receptor agonists” (Novo Nordisk A/S, priority 2022, dated 2024)
# Starred links: 1 amine or outer side, 2 acyl side, 3 side chain; linkers in the order of their positions; H or OH if unused. Residues, ends and D or L forms follow the SMILES beside them. *: point of attachment. C18 diacid = O=C(O)CCCCCCCCCCCCCCCCC(=O)*; γGlu = O=C(O)[C@H](CCC(=O)[*:2])N[*:1]
# Columns and labels:
# [1] = target: T1, human amylin receptor (hAMYR3) (Homo sapiens, UniProt O60896+P30988); experiment: Human amylin receptor (hAMYR3) in vitro potency assay, CRE-luciferase reporter in BHK cells; type: cell-based; settings: BHK hAMYR3/CRE-Luc cells, 3 hours incubation, assay buffer with 1% ovalbumin
# T1 construct: host or cells: BHK (Baby Hamster Kidney), Hollex-1 cell line further transfected with RAMP3
# Procedure, shortened: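 BHK cells stably expressing human calcitonin receptor (a) plus RAMP3 and a CRE-luciferase reporter, seeded overnight, then exposed to 7-point 7-fold dilutions (often from ~10 nM) in DMEM/HEPES buffer with 1% ovalbumin for 3 h at 37 °C. Luciferase luminescence read after SteadyLite Plus addition.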
# [2] = target: T2, human calcitonin receptor (hCTR) (Homo sapiens, UniProt P30988); experiment: Human calcitonin receptor (hCTR) in vitro potency assay, CRE-luciferase reporter in BHK cells; type: cell-based; settings: BHK hCTR/CRE-Luc cells, 3 hours incubation, assay buffer with 1% ovalbumin; read-out: hCalcR potency, EC50
# T2 construct: host or cells: BHK (Baby Hamster Kidney), Hollex-1 cell line
# T2 sequence (P30988 25-474): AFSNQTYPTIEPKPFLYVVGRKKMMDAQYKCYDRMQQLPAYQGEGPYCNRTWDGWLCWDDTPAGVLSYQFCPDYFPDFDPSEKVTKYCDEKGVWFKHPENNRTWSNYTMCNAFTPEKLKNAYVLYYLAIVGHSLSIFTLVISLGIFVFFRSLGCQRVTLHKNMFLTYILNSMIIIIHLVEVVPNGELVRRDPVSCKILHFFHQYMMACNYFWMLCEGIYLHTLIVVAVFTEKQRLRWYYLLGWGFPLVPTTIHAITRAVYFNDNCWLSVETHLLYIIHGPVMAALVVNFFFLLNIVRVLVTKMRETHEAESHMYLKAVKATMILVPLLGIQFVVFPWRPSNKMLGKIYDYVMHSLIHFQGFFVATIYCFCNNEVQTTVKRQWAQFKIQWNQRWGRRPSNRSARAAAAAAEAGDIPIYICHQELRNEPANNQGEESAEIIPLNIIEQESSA
# Procedure, shortened: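 BHK cells stably co-expressing human calcitonin receptor and a CRE-luciferase reporter, seeded the day before, were exposed to 7-fold serial dilutions (7 concentrations, often starting near 10 nM) in DMEM/HEPES/1% ovalbumin buffer for 3 h at 37 °C. Luminescence was then read after SteadyLite Plus addition.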
# T1 sequence (O60896 24-148, one chain of several): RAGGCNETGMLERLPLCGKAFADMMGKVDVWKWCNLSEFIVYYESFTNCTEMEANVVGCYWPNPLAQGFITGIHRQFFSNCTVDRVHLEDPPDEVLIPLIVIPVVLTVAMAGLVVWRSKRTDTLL
EC50 [1],EC50 [2],SMILES
5.2 pM,3.08 pM,"CC[C@H](C)[C@H](NC(=O)[C@@H]1CCCN1C(=O)CNC(=O)[C@H](Cc1ccccc1)NC(=O)[C@H](Cc1c[nH]cn1)NC(=O)[C@H](Cc1c[nH]cn1)NC(=O)[C@H](CC(C)C)NC(=O)[C@H](Cc1ccccc1)NC(=O)[C@H](CCC(=O)O)NC(=O)[C@H](C)NC(=O)[C@H](CC(C)C)NC(=O)[C@H](CCCNC(=N)N)NC(=O)[C@H](CCC(N)=O)NC(=O)[C@@H](NC(=O)[C@H](CCC(N)=O)NC(=O)[C@H](C)NC(=O)[C@@H](NC(=O)[C@H](CO)NC(=O)[C@H](CC(C)C)NC(=O)[C@H](CCC(=O)O)NC(=O)[C@H](CO)NC(=O)[C@H](C)NC(=O)CC[C@H](NC(=O)CCCCCCCCCCCCCCCCC(=O)O)C(=O)O)[C@@H](C)O)[C@@H](C)O)C(=O)N[C@@H](CC(C)C)C(=O)N1CCC[C@H]1C(=O)N1CCC[C@H]1C(=O)N[C@H](C(=O)N[C@@H](CC(=O)O)C(=O)N[C@H](C(=O)NCC(=O)N[C@@H](CO)C(=O)N[C@@H](CCC(=O)O)C(=O)N[C@H](C(=O)N1CCC[C@H]1C(N)=O)[C@@H](C)O)C(C)C)[C@@H](C)O [Compound 29, N^1-[(4S)-4-carboxy-4-(17-carboxyheptadecanoylamino)butanoyl]-[Ala1,Ser2,Glu3,Leu4,Ser5,Ala7,Gln8,Glu14,His17,Pro25,Pro28,Pro29,Asp31,Glu35,Pro37],des-(19-22)-human amylin] ({C18 diacid-γGlu}-ASELSTAQTQRLAEFLHHFGPILPPTDVGSETP-NH2)"
2.37 pM,2.07 pM,"CC[C@H](C)[C@H](NC(=O)[C@@H]1CCCN1C(=O)CNC(=O)[C@H](Cc1ccccc1)NC(=O)[C@H](Cc1c[nH]cn1)NC(=O)[C@H](Cc1c[nH]cn1)NC(=O)[C@H](CC(C)C)NC(=O)[C@H](Cc1ccccc1)NC(=O)[C@H](CCC(=O)O)NC(=O)[C@H](C)NC(=O)[C@H](CC(C)C)NC(=O)[C@H](CCCNC(=N)N)NC(=O)[C@H](CCC(N)=O)NC(=O)[C@@H](NC(=O)[C@H](CCC(N)=O)NC(=O)[C@H](C)NC(=O)[C@@H](NC(=O)[C@H](CO)NC(=O)[C@H](CC(C)C)NC(=O)[C@H](CO)NC(=O)CNC(=O)[C@H](C)NC(=O)CC[C@H](NC(=O)CC[C@H](NC(=O)CCCCCCCCCCCCCCCCC(=O)O)C(=O)O)C(=O)O)[C@@H](C)O)[C@@H](C)O)C(=O)N[C@@H](CC(C)C)C(=O)N1CCC[C@H]1C(=O)N1CCC[C@H]1C(=O)N[C@H](C(=O)N[C@@H](CC(=O)O)C(=O)N[C@H](C(=O)NCC(=O)N[C@@H](CO)C(=O)N[C@@H](CCC(=O)O)C(=O)N[C@H](C(=O)N1CCC[C@H]1C(N)=O)[C@@H](C)O)C(C)C)[C@@H](C)O [Compound 30, N^1-[(4S)-4-carboxy-4-[[(4S)-4-carboxy-4-(17-carboxyheptadecanoylamino)butanoyl]amino]butanoyl]-[Ala1,Gly2,Ser3,Leu4,Ser5,Ala7,Gln8,Glu14,His17,Pro25,Pro28,Pro29,Asp31,Glu35,Pro37],des-(19-22)-human amylin] ({C18 diacid-γGlu-γGlu}-AGSLSTAQTQRLAEFLHHFGPILPPTDVGSETP-NH2)"
2.03 pM,2.13 pM,"CC[C@H](C)[C@H](NC(=O)[C@@H]1CCCN1C(=O)CNC(=O)[C@H](Cc1ccccc1)NC(=O)[C@H](Cc1c[nH]cn1)NC(=O)[C@H](Cc1c[nH]cn1)NC(=O)[C@H](CC(C)C)NC(=O)[C@H](Cc1ccccc1)NC(=O)[C@H](CCC(=O)O)NC(=O)[C@H](C)NC(=O)[C@H](CC(C)C)NC(=O)[C@H](CCCNC(=N)N)NC(=O)[C@H](CCC(N)=O)NC(=O)[C@@H](NC(=O)[C@H](CCC(N)=O)NC(=O)[C@H](C)NC(=O)[C@@H](NC(=O)[C@H](CO)NC(=O)[C@H](CC(C)C)NC(=O)[C@H](Cc1c[nH]cn1)NC(=O)[C@H](CO)NC(=O)[C@H](C)NC(=O)CC[C@H](NC(=O)CC[C@H](NC(=O)CCCCCCCCCCCCCCCCC(=O)O)C(=O)O)C(=O)O)[C@@H](C)O)[C@@H](C)O)C(=O)N[C@@H](CC(C)C)C(=O)N1CCC[C@H]1C(=O)N1CCC[C@H]1C(=O)N[C@H](C(=O)N[C@@H](CC(=O)O)C(=O)N[C@H](C(=O)NCC(=O)N[C@@H](CO)C(=O)N[C@@H](CCC(=O)O)C(=O)N[C@H](C(=O)N1CCC[C@H]1C(N)=O)[C@@H](C)O)C(C)C)[C@@H](C)O [Compound 31, N^1-[(4S)-4-carboxy-4-[[(4S)-4-carboxy-4-(17-carboxyheptadecanoylamino)butanoyl]amino]butanoyl]-[Ala1,Ser2,His3,Leu4,Ser5,Ala7,Gln8,Glu14,His17,Pro25,Pro28,Pro29,Asp31,Glu35,Pro37],des-(19-22)-human amylin] ({C18 diacid-γGlu-γGlu}-ASHLSTAQTQRLAEFLHHFGPILPPTDVGSETP-NH2)"
5.71 pM,15.7 pM,"CC[C@H](C)[C@H](NC(=O)[C@@H]1CCCN1C(=O)CNC(=O)[C@H](Cc1ccccc1)NC(=O)[C@H](Cc1c[nH]cn1)NC(=O)[C@H](Cc1c[nH]cn1)NC(=O)[C@H](CC(C)C)NC(=O)[C@H](Cc1ccccc1)NC(=O)[C@H](CCC(=O)O)NC(=O)[C@H](C)NC(=O)[C@H](CC(C)C)NC(=O)[C@H](CCCNC(=N)N)NC(=O)[C@H](CCC(N)=O)NC(=O)[C@@H](NC(=O)[C@H](CCC(N)=O)NC(=O)[C@H](C)NC(=O)[C@@H](NC(=O)[C@H](CO)NC(=O)[C@H](CC(C)C)NC(=O)[C@H](Cc1c[nH]cn1)NC(=O)[C@H](CO)NC(=O)[C@H](C)NC(=O)CC[C@H](NC(=O)CC[C@H](NC(=O)CCCCCCCCCCCCCCCCC(=O)O)C(=O)O)C(=O)O)[C@@H](C)O)[C@@H](C)O)C(=O)N[C@@H](CC(C)C)C(=O)N1CCC[C@H]1C(=O)N1CCC[C@H]1C(=O)N[C@H](C(=O)N[C@@H](CC(=O)O)C(=O)N[C@H](C(=O)NCC(=O)N[C@@H](CO)C(=O)N[C@@H](CCC(=O)O)C(=O)N[C@H](C(=O)N[C@@H](Cc1ccc(O)cc1)C(N)=O)[C@@H](C)O)C(C)C)[C@@H](C)O [Compound 32, N^1-[(4S)-4-carboxy-4-[[(4S)-4-carboxy-4-(17-carboxyheptadecanoylamino)butanoyl]amino]butanoyl]-[Ala1,Ser2,His3,Leu4,Ser5,Ala7,Gln8,Glu14,His17,Pro25,Pro28,Pro29,Asp31,Glu35],des-(19-22)-human amylin] ({C18 diacid-γGlu-γGlu}-ASHLSTAQTQRLAEFLHHFGPILPPTDVGSETY-NH2)"
1.69 pM,1.74 pM,"CC[C@H](C)[C@H](NC(=O)[C@H](C)NC(=O)CNC(=O)[C@H](Cc1ccccc1)NC(=O)[C@@H]1CCCN1C(=O)[C@H](CC(=O)O)NC(=O)[C@H](CO)NC(=O)[C@H](CO)NC(=O)[C@H](Cc1c[nH]cn1)NC(=O)[C@H](Cc1c[nH]cn1)NC(=O)[C@H](CC(C)C)NC(=O)[C@H](Cc1ccccc1)NC(=O)[C@H](CCC(=O)O)NC(=O)[C@H](C)NC(=O)[C@H](CC(C)C)NC(=O)[C@H](CCCNC(=N)N)NC(=O)[C@H](CCC(N)=O)NC(=O)[C@@H](NC(=O)[C@H](CCC(N)=O)NC(=O)[C@H](CC(C)C)NC(=O)[C@@H](NC(=O)[C@H](CO)NC(=O)[C@H](CC(C)C)NC(=O)[C@H](Cc1c[nH]cn1)NC(=O)[C@H](CO)NC(=O)[C@H](C)NC(=O)CC[C@H](NC(=O)CCCCCCCCCCCCCCCCC(=O)O)C(=O)O)[C@@H](C)O)[C@@H](C)O)C(=O)N1CCC[C@H]1C(=O)N[C@@H](CO)C(=O)N[C@@H](CO)C(=O)N[C@H](C(=O)N[C@@H](CC(=O)O)C(=O)N[C@H](C(=O)NCC(=O)N1CCC[C@H]1C(=O)N[C@@H](CC(=O)O)C(=O)N[C@H](C(=O)N1CCC[C@H]1C(N)=O)[C@@H](C)O)C(C)C)[C@@H](C)O [Compound 33, N^1-[(4S)-4-carboxy-4-(17-carboxyheptadecanoylamino)butanoyl]-[Ala1,Ser2,His3,Leu4,Ser5,Leu7,Gln8,Glu14,His17,Asp21,Pro22,Pro27,Asp31,Pro34,Asp35,Pro37]-human amylin] ({C18 diacid-γGlu}-ASHLSTLQTQRLAEFLHHSSDPFGAIPSSTDVGPDTP-NH2)"
